From PubChem BioAssay AID623928 (NMMLSC, 2012)
The source made the active and inactive calls.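 The calls were made as follows: active = liver cell toxicity, with the dose killing half the cells under 10 micromolar; inactive = the rest.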

Tested on: Fa2N-4 hepatocyte viability, ATP luminescence, 24 h
Experiment: cytotoxicity in immortalized human hepatocytes, late-stage follow-up, cytotoxicity control for GPR30 and estrogen receptor ligands, Fa2N-4 cells (AID 623928)

SMILES: CC(=O)c1ccc2c(c1)[C@@H]1C=CC[C@@H]1[C@H](c1cc3c(cc1Br)OCO3)N2
- LC50: > 50 µM (inactive)
